Columns and labels:
Format in all cases: in vivo
[1] = test system: Puccinia recondita f. sp. tritici (PUCCRT); assay: Drop Line Test on wheat leaf, Brown Rust of Wheat; details: Drop Line Test 0.5 μg/leaf, 2 microliter drop
Experimental: Wheat (cultivar Monon) was grown in plastic pots (6.2 cm×8.75 cm) containing 50 percent mineral soil, 50 percent Metro-Mix 360 (W.R Grace and Co.) until the seedlings were 10-20 cm tall. These plants were then sprayed to runoff with the test compound at a rate of 200 ppm. After 24 hours the test plants were inoculated by spraying with an aqueous spore suspension of Puccinia recondita f. sp. tritici (PUCCRT). The plants were then transferred to a dew chamber for 24 hours, then to the greenhouse until disease developed on the untreated control plants. In Example 3, a Drop Line Test was used, wherein instead of spraying the plant to runoff, a 2 microliter drop was placed on the wheat leaf and observed for disease control.

[2] = test system: Venturia inaequalis (VENTIN); assay: One day protectant (1 DP) test, Apple Scab; details: 0.1 percent Spraymate X77 + 0.1 percent ammonium sulfate
[3] = test system: Venturia inaequalis (VENTIN); assay: Curative test, Apple Scab (compound added 2 days after inoculation); details: curative at 200 ppm

| Structure (SMILES) | PUCCRT percent control of plant disease, Drop Line Test [1] | VENTIN percent control of plant disease ([2]; 50 ppm and 100 ppm) | VENTIN percent control of plant disease ([2]; rate 200 ppm) | VENTIN percent control of plant disease, curative [3] |
| --- | --- | --- | --- | --- |
| C[C@H](N)C(=O)NC(CC(=O)O)(CC(=O)C1=C(O)[C@H](CN)NC1=O)C(=O)O (stereo partly shown) [Compound III] | + (+ = 30-74 percent control of plant disease) | – | – | – |
| NC[C@@H]1NC(=O)C(C(=O)CC(NC(=O)[C@@H](N)CO)(C(=O)O)C(=O)O)=C1O [Compound I, {[(2S)-2-amino-3-hydroxypropanoyl]amino}{2-[(5S)-5-(aminomethyl)-4-hydroxy-2-oxo-2,5-dihydro-1H-pyrrol-3-yl]-2-oxoethyl}malonic acid] | – | ++ (++ = 75-100 percent control of plant disease) | + (+ = 30-74 percent control of plant disease) | ++^α (++ = 75-100 percent control of plant disease) |
